The nature of data set [1]: Lambda max of photochromic test squares by UV-Visible spectrophotometer. In kind it is physicochemical. More on the design: unit not given here. Conditions: Varian Cary 3; for (λ) max (VIS): activated (colored) form in polymer test square, visible spectrum wavelength of maximum absorption; for (λ) max (UV): photochromic compound in polymer test square, ultraviolet wavelength closest to the visible spectrum. As to the method:
(§1) Testing was done with the photochromic compounds described in Examples 1-5 and 7-9 in the following manner. A quantity of photochromic compound calculated to yield a 1.5×10^-3 molal solution was added to a flask containing 50 grams of a monomer blend of 4 parts ethoxylated bisphenol A dimethacrylate (BPA 2EO DMA), 1 part poly(ethylene glycol) 600 dimethacrylate, and 0.033 weight percent 2,2'-azobis(2-methyl propionitrile) (AIBN). The photochromic compound was dissolved into the monomer blend by stirring and gentle heating. After a clear solution was obtained, it was poured into a flat sheet mold having the interior dimensions of 2.2 mm×6 inches (15.24 cm)×6 inches (15.24 cm). The mold was sealed and placed in a horizontal air flow, programmable oven programmed to increase the temperature from 40° C. to 95° C. over a 5 hour interval, hold the temperature at 95° C. for 3 hours and then lower it to 60° C. for at least 2 hours. After the mold was opened, the polymer sheet was cut using a diamond blade saw into 2 inch (5.1 centimeters) test squares.
(§2) The Δ OD/Min, which represents the sensitivity of the photochromic compound's response to UV light, was measured over the first five (5) seconds of UV exposure, then expressed on a per minute basis. The saturation optical density (Δ OD@ Sat) was taken under identical conditions as the Δ OD/Min, except UV exposure was continued for 20 minutes. The lambda max (Vis) is the wavelength in the visible spectrum at which the maximum absorption of the activated (colored) form of the photochromic compound in a test square occurs. The lambda max (Vis) wavelength was determined by testing the photochromic test square polymerizates of Part A in a Varian Cary 3 UV-Visible spectrophotometer. The lambda (λ) max (UV) is the wavelength in the ultraviolet range closest to the visible spectrum at which the absorption of the photochromic compound occurs. This absorption was also determined with the same spectrophotometer. The bleach rate (T 1/2) is the time interval in seconds for the absorbance of the activated form of the photochromic compound in the test squares to reach one half the highest absorbance at room temperature (75° F., 23.90° C.) after removal of the source of activating light.

The nature of data set [2]: Photochromic response of test squares on an optical bench (ΔOD/Min, ΔOD at saturation, bleach rate). Conditions: for ΔOD @ saturation: UV exposure continued for 20 minutes; for ΔOD @ saturation / ΔOD/MIN sensitivity: 75° F., 1.5×10^-3 molal in polymer; for ΔOD/MIN sensitivity: first five seconds of UV exposure, expressed per minute; for Bleach T 1/2: time to one half the highest absorbance at room temperature (75° F.) after removal of activating light. The class given is physicochemical. As to the method:
as §1
The photochromic test squares prepared in Part A were tested for photochromic response on an optical bench. Prior to testing on the optical bench, the photochromic test squares were exposed to 365 nanometer ultraviolet light for about 15 minutes to activate the photochromic compounds and then placed in a 76° C. oven for about 15 minutes to bleach or inactivate the photochromic compounds. The test squares were then cooled to room temperature, exposed to fluorescent room lighting for at least 2 hours and then kept covered for at least 2 hours prior to testing on an optical bench maintained at 75° F. (23.90° C.). The bench was fitted with a 150 watt Xenon arc lamp, a remote controlled shutter, a copper sulfate bath acting as a heat sink for the arc lamp, a Schott WG-320 nm cut-off filter which removes short wavelength radiation; neutral density filter(s) and a sample holder in which the square to be tested was inserted. A collimated beam of light from a tungsten lamp was passed through the square at a small angle (approximately 30°) normal to the square. After passing through the square, the light from the tungsten lamp was directed to a detector through Spectral Energy Corp. GM-200 monochromator set at the previously determined visible lambda max of the photochromic compound being measured. The output signals from the detector were processed by a radiometer.
Change in optical density (ΔOD) was determined by inserting a test square in the bleached state into the sample holder, adjusting the transmittance scale to 100% opening the shutter from the Xenon lamp to provide ultraviolet radiation to change the test square from the bleached state to an activated (i.e., darkened) state, measuring the transmittance in the activated state, and calculating the change in optical density according to the formula: ΔOD=log(100/%Ta), where %Ta is the percent transmittance in the activated state and the logarithm is to the base 10.
as §2, with “The bleach rate (T 1/2) is the time interval in seconds for the absorbance of the activated form of the photochromic compound in the test squares to reach one half the highest absorbance at room temperature (75° F., 23.90° C.) after removal of the source of activating light.” left out

For the molecule `COc1cc2c3c(c4c(c2cc1OC)-c1ccccc1C4(C)C)OC(c1ccccc1)(c1ccccc1)C=C3` [Example 5, 6,7-dimethoxy-2,2-diphenyl-13,13-dimethyl-2,13-dihydro-indeno[1',2':4,3]naphtho[2,1-b]pyran], in data set [1], the “(λ) max (VIS)” value came out at 446 and the “(λ) max (UV)” value turned out to be 358. In data set [2], the “ΔOD @ saturation” value worked out at 0.37, the ΔOD/MIN sensitivity is 0.39 ΔOD/MIN and the “Bleach T 1/2” value was found to be 58 s.
For `COc1cc2c3c(c4c(c2cc1OC)-c1ccccc1C4(C)O)OC(c1ccccc1)(c1ccccc1)C=C3` (stereo not shown) [Example 8, 6,7-dimethoxy-2,2-diphenyl-13-hydroxy-13-methyl-2,13-dihydro-indeno[1',2':4,3]naphtho[2,1-b]pyran] the same measures were 459, 361, 0.25, 0.41 ΔOD/MIN and 35 s.
The corresponding values for `COc1cc2c3c(c4c(c2cc1OC)-c1ccccc1C4)OC(c1ccccc1)(c1ccccc1)C=C3` [Example 2, 6,7-dimethoxy-2,2-diphenyl-2,13-dihydro-indeno[1'2':4,3]naphtho[2,1-b]pyran] are 443, 387, 0.44, 0.48 ΔOD/MIN and 51 s.
Consider `COc1cc2c3c(c4c(c2cc1OC)-c1ccccc1C4C)OC(c1ccccc1)(c1ccccc1)C=C3` (stereo not shown) [Example 4, 6,7-dimethoxy-2,2-diphenyl-13-methyl-2,13-dihydro-indeno[1',2':4,3]naphtho[2,1-b]pyran], for which, in data set [1], the “(λ) max (VIS)” value was determined as 442 and the “(λ) max (UV)” value was 356. In addition, in data set [2], the “ΔOD @ saturation” value amounted to 0.38, the ΔOD/MIN sensitivity was 0.43 ΔOD/MIN and the “Bleach T 1/2” value stood at 62 s.
The corresponding values for `CCCCC1(O)c2ccccc2-c2c1c1c(c3cc(OC)c(OC)cc23)C=CC(c2ccccc2)(c2ccccc2)O1` (stereo not shown) [Example 7, 6,7-dimethoxy-2,2-diphenyl-13-hydroxy-13-butyl-2,13-dihydro-indeno[1',2':4,3]naphtho[2,1-b]pyran] are 445, 356, 0.23, 0.41 ΔOD/MIN and 38 s.
The corresponding values for `COc1ccc(C2(c3ccccc3F)C=Cc3c(c4c(c5cc(OC)c(OC)cc35)-c3ccccc3C4)O2)cc1` (stereo not shown) [Example 3, 6,7-dimethoxy-2-(2-fluorophenyl)-2-(4-methoxyphenyl)-2,13-dihydro-indeno[1',2':4,3]naphtho[2,1-b]pyran] are 464, 385, 1.22, 0.48 ΔOD/MIN and 227 s.
For `COc1cc2c3c(c4c(c2cc1OC)-c1ccccc1C4O)OC(c1ccccc1)(c1ccccc1)C=C3` (stereo not drawn) [Example 9, 6,7-dimethoxy-2,2-diphenyl-13-hydroxy-2,13-dihydro-indeno[1',2':4,3]naphtho[2,l-b]pyran] the same measures were 469, 359, 0.17, 0.28 ΔOD/MIN and 31 s.
In the case of `COc1ccc2c3c(c4c(c2c1)C=CC(c1ccccc1)(c1ccccc1)O4)Cc1ccccc1-3` [Example 1, 6-methoxy-2,2-diphenyl-2,13-dihydro-indeno[1'2':4,3]naphtho[2,1-b]pyran], in data set [1], the “(λ) max (VIS)” value is 437 and the “(λ) max (UV)” value is on record as 366. Moreover, in data set [2], the “ΔOD @ saturation” value was 0.38, the ΔOD/MIN sensitivity is 0.52 ΔOD/MIN and the “Bleach T 1/2” value was 42 s.

Values taken from patent US5869658A, “Photochromic indeno-fused naptho[2,1-b]pyrans” (PPG Industries, Inc., priority 1997, dated 1999).
